Laboratory results: patent US20230313181A1, “HISTIDINE-LYSINE POLYMERS AND METHODS FOR DELIVERING MRNA USING THE SAME” (UNIVERSITY OF MARYLAND, BALTIMORE, priority 2019, published 2023)
Entries after “also recorded” stand apart in the source; their conditions may differ. Where no end group is shown, it is not given here.

What was measured:
mRNA = assay: Heparin displacement assays (gel electrophoresis and Sybr Gold dye intercalation); type: physicochemical; conditions: HK:mRNA 4:1 wt/wt
Description: FIG. 4. Heparin Displacement Assays. After HK polyplexes were formed (wt:wt; HK:mRNA; 4 μg:1 μg), different concentrations of heparin […] were incubated with these for 30 min. A. Gel Retardation. The HK polyplexes were loaded on the agarose gel (1%), and electrophoresis was carried out and stained with Sybr Gold. B. Fluorescent dye intercalation. After the HK polyplexes were formed and incubated with several concentrations of heparin, the Sybr Gold nucleic acid dye was incubated with the HK polyplexes for 5 mins. Fluorescence was then measured by a microplate fluorimeter (λex=497 nm, λem=520 nm) (SynergyMx, BioTek). *, P<0.05; ***, P<0.001; H3K4b or H2K vs. H3K(+H)4b.
Heparin Displacement Assays. Heparin displacement assays of HK polyplexes were done with the dye intercalation assay and with gel electrophoresis. A fluorescent assay assessed polyplexes of HK polymer and mRNA (4:1 wt/wt ratio; polymer:mRNA) formed in RNAse/DNAase free water (Corning, Manassas, VA). HK polyplexes were prepared as described previously, followed by the addition of diluted Syber Gold. For detection, working dilutions of the polyplexes (1/5 of volume), water (3/5) and Sybr Gold dye (1/5, 0.2×) were incubated for 5 minutes, and fluorescence was measured by a fluorimeter (Ex=497 nm, Em=520 nm) (SynergyMx, BioTek, Winooski, VT). The control sample was prepared with the same amount of mRNA, water, and Sybr Gold dye. For the heparin displacement, instead of water, heparin salt (Sigma-Aldrich, St. Louis, MO) solutions at different concentrations (0.5, 1, 1.5, 2, 3 μg/μl) were used, and the HK polyplexes were incubated at 37° C. for 30 min before addition of Sybr Gold.
Displacement of mRNA from HK polyplexes with heparin was also done with gel electrophoresis. After HK polyplexes were formed, different concentrations of heparin (0.5, 1.0, 1.5, 2.0, 3.0 μg/μl; volume 20 μl) were incubated with these at 37° C. for 30 min. The polyplexes were then loaded on the agarose gel (1%; 10× BlueJuice Gel loading buffer), and electrophoresis was carried out and stained with SG as described above. […]

[1] = prior studies [34, 35, 45]; cited from earlier work
[2] = prior studies [27]; cited from earlier work
MDA-MB-231 cells = assay: In vitro mRNA transfection with HK polyplexes (luciferase mRNA, luciferase activity); type: cell-based; conditions: for RLU/μg-Protein (luciferase activity): mRNA 1 μg, 24 h; for effectiveness as carrier of mRNA (in words): luciferase mRNA, HK polyplex; for mRNA transfection relative to H3K(+H)4b (in words): 4:1 ratio (HK:mRNA)
Description: FIG. 1. Comparison of H3K(+H)4b and H3K4b peptides as carriers of mRNA. To form the HK polyplexes, the mRNA (1 μg) was mixed with 3 different ratios of the HK ([…]) polymer for 30 minutes. The HK polyplexes were then added to the cells for 24 h before the luciferase activity was measured. ****, H3K(+H)4b vs H3K4b, P<0.0001.
In vitro mRNA Transfection. Several HK polymers were examined for their ability to carry a luciferase-expressing mRNA (CleanCap Firefly Luciferase mRNA, Trilink Biotechnologies, Inc, San Diego, CA) into MDA-MB-231 cells (America Type Tissue Culture, Manassas, VA). In brief, 3×10^4 cells were plated into a 24-well plate containing 500 μl of DMEM and 10% fetal bovine serum (ThermoFisher Scientific, Waltham, MA). After 24 h, when the cells were 60 to 80% confluent, the media in each well was changed to Opti-MEM (ThermoFisher Scientific). To prepare HK polyplexes, mRNA (1 μg) in 50 μl of Opti-MEM was briefly mixed well with one of the HK polymers (4 to 12 μg) and maintained at room temperature for 30 min. This polyplex was then added dropwise to the cells. After four h, the Opti-MEM media was removed and replaced with 0.5 ml of DMEM/10% serum (0.5 ml). Twenty-four hours later, the cells were lysed, and the luciferase activity (Promega Corporation, Madison, WI) was measured.
To obtain the data in Table 4, luciferase-expressing mRNA (1 μg) in 50 μl of Opti-MEM was briefly mixed with one of the HK polymers (4, 8, or 12 μg) and maintained at room temperature for 30 min. The resulting polyplexes were added dropwise to the MDA-NM-231 cells and after four h, the Opti-MEM media was removed and replaced with DMEM/10% serum. Twenty-four hours later, the cells were lysed, and the luciferase activity was measured

[3] = prior study [43]; cited from earlier work
human cells = conditions: cited from earlier work
[4] = ratio mRNA:polymer 1:12 (wt:wt)

Substance | binding/release of mRNA and polyplex stability on exposure to heparin (in words) (mRNA) | carrier of siRNA (in words) [1] | carrier of DNA plasmids (in words) [2] | RLU/μg-Protein (luciferase activity) (MDA-MB-231 cells; ratio mRNA:polymer 1:4 (wt:wt)) [RLU/μg-Protein] | RLU/μg-Protein (luciferase activity) (MDA-MB-231 cells; ratio mRNA:polymer 1:8 (wt:wt)) [RLU/μg-Protein] | RLU/μg-Protein (luciferase activity) (MDA-MB-231 cells; [4]) [RLU/μg-Protein] | effectiveness as carrier of mRNA (in words) (MDA-MB-231 cells) | fold less effective in transfecting mRNA compared to H3K(+H)4b (MDA-MB-231 cells; 4:1 ratio (HK:mRNA; wt:wt)) | antimicrobial activity (in words) [3] | cytotoxicity to human cells (in words) (human cells) | mRNA transfection relative to H3K(+H)4b (in words) (MDA-MB-231 cells)
H2K4b: four-branched HK polymer on three-lysine core, each branch R = KHKHHKHHKHHKHHKHHKHK- (SEQ ID NO: 5) (also: one of four branches on a three-lysine core) | too stable | poor carrier of relatively low molecular weight siRNA | good carrier of large molecular weight DNA plasmids | 546.7 ± 70.1 | 132.3 ± 58.5 | 194.7 ± 18.4 | – | – | – | – | –
H3K(1+H)4b: four-branched HK polymer, each branch R = KHHHKHHHKHHHKHHHHK- (SEQ ID NO: 12) (also: one of four branches on a branched lysine core) | – | – | – | 24.3 ± 4.5 | 15.0 ± 3.6 | 7.3 ± 2.5 | poor carriers of mRNA | – | – | – | –
H3K(1,3+H)4b: four-branched HK polymer, each branch R = KHHHKHHHHKHHHKHHHHK- (SEQ ID NO: 14) (also: one of four branches on a branched lysine core) | – | – | – | 518.3 ± 134.7 | 427.7 ± 18.1 | 378 ± 5.2 | – | about 2.5 fold | – | – | –
H3K(3+H)4b: four-branched HK polymer, each branch R = KHHHKHHHHKHHHKHHHK- (SEQ ID NO: 13) (also: one of four branches on a branched lysine core) | – | – | – | 61.7 ± 5.7 | 68.7 ± 3.1 | 59.0 ± 7.5 | poor carriers of mRNA | – | – | – | –
H3k4b (KHHHKHHHKHHHKHHHK; also: one of four branches on a branched lysine core) | – | – | – | – | – | – | – | – | greater antimicrobial activity | no observed cytotoxicity to human cells | –
H4K4b: four-branched HK polymer, each branch R = KHHHHKHHHHKHHHHKHHHHK- (SEQ ID NO: 11) (also: one of four branches on a branched lysine core) | – | – | – | 896.4 ± 112.6 | 821.8 ± 115.6 | 522.4 ± 69.2 | effective carriers of mRNA | – | – | – | did not enhance mRNA transfection
H-H3K(+H)4b: four-branched HK polymer, each branch R = HKHHHKHHHKHHHHKHHHK- (SEQ ID NO: 9) (also: one of four branches on a branched lysine core) | – | – | – | 1107.5 ± 140.4 | 874.6 ± 65.2 | 676.4 ± 25.7 | effective carriers of mRNA; also recorded: markedly more effective as a carrier of mRNA | – | – | – | did not improve mRNA transfection more than H3K(+H)4b
